Reference: patent publication US7220741B2, “1,4-diazabicycloalkane derivatives, their preparation and use” (NeuroSearch A/S, priority 2002, dated 2007)
pIC50: −log10 of the molar value. Counter-ions that a name gives are not always drawn.

Columns and labels:
[1] = biological target: T1, α7-subtype of nicotinic receptors (Rattus norvegicus, UniProt Q05941); test: In vitro inhibition of 3H-α-bungarotoxine binding in rat brain; details: cerebral cortices from male Wistar rats, homogenate; 3H-α-bungarotoxine 2 nM; 2 hours at 37° C.
T1 construct: Cerebral cortices from male Wistar rats (150–250 g) are homogenised; from tissue; host or cells: rat cerebral cortex membrane homogenate (male Wistar rats)
T1 sequence (Q05941 23-502): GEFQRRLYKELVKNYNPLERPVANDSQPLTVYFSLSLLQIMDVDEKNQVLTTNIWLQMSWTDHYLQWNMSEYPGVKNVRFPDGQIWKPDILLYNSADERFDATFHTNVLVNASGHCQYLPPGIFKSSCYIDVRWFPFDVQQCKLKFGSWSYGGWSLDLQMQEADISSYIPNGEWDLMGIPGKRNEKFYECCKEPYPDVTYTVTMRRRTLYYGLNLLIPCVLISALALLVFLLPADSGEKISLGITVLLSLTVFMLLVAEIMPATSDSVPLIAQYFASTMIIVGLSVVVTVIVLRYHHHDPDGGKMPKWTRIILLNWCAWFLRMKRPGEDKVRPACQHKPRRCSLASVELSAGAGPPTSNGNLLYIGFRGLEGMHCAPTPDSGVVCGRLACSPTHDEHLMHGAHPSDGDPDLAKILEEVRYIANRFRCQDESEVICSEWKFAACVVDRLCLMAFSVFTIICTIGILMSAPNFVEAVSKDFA

SMILES	melting point [°C]	pIC50 [1]
COc1cccc(-c2nnc(N3CCN4CCC3CC4)o2)c1.O=C(O)/C=C/C(=O)O	126 to 164	–
O=C(O)/C=C/C(=O)O.c1csc(-c2nnc(N3CCN4CCC3CC4)o2)c1 [Compound D5, 4-[5-(2-Thienyl)-1,3,4-oxadiazol-2-yl]-1,4-diazabicyclo[3.2.2]nonane fumaric acid salt]	161.8 to 162.7	7.66
O=C(O)/C=C/C(=O)O.c1cc(-c2nnc(N3CCN4CCC3CC4)o2)ccn1	165.9 to 166.8	–
O=C(O)/C=C/C(=O)O.c1ccc(-c2ccc(-c3nnc(N4CCN5CCC4CC5)o3)cc2)cc1	238 to 239	–
O=C(O)/C=C/C(=O)O.c1coc(-c2nnc(N3CCN4CCC3CC4)o2)c1	175	–
c1ccc(-c2nnc(N3CCN4CCC3CC4)o2)cc1 [Compound D1, 4-(5-Phenyl-1,3,4-oxadiazol-2-yl)-1,4-diazabicyclo[3.2.2]nonane fumaric acid salt]	–	8.24
Clc1ccc(-c2nnc(N3CCN4CCC3CC4)o2)cc1.O=C(O)/C=C/C(=O)O	184.3 to 185.8	–
c1ccc(-c2nnc(N3CCN4CCC3CC4)s2)cc1 [Compound 1A, 4-(5-Phenyl-1,3,4-thiadiazol-2-yl)-1,4-diazabicyclo[3.2.2]nonane fumaric acid salt]	–	8.17
O=C(O)/C=C/C(=O)O.c1ccc2cc(-c3nnc(N4CCN5CCC4CC5)o3)ccc2c1	194.6 to 195.7	–
O=C(O)/C=C/C(=O)O.c1cncc(-c2nnc(N3CCN4CCC3CC4)o2)c1	176.8 to 177.5	–
COc1ccc(-c2nnc(N3CCN4CCC3CC4)o2)cc1.O=C(O)/C=C/C(=O)O	190.1 to 191.2	–
